Reference: patent US20110093959A1, “CRYPTOTIS PARVA SCREENING MODEL FOR ANTIEMETIC POTENTIAL” (priority 2008, published 2011)

What was measured:
Format in all cases: in vivo, Cryptotis parva
Least Shrew [1] = test: Emetic effect of arachidonic acid metabolites and leukotrienes in the Least Shrew; conditions: found experimentally
Protocol: Varying doses of leukotriene LTC4 were administered by intraperitoneal injection, and dose-response emetic effects recorded for 30 min post-injection observation period. The graph in FIG. 20 depicts enhancements in the frequency (mean±S.E.M.) of emesis.

[2] = system: GR73632-induced emesis and scratching in the Least Shrew; test: Antagonist interaction study against GR73632 (5 mg/kg, i.p.)-induced emesis and scratching; conditions: for behavioral effect of antagonist by itself: 20 mg/kg dose, without GR73632; for enhancement of frequency of GR73632-induced emesis / enhancement of frequency of GR73632-induced scratching / percentage of shrews vomiting in response to GR73632: antagonist 20 mg/kg i.p.
Excerpt: The present protocols were based upon preliminary studies as well as published findings in the Least Shrew. Darmani, 2001a; Darmani et al., 69 Pharmacol. Biochem. Behay. 239-49 (2001b). On the test day, the shrews were allowed to acclimate to the test laboratory for at least one hour prior to experimentation. To habituate the animals to the test environment, each shrew was randomly selected and transferred to a 20 cm×18 cm×21 cm clean clear plastic cage and offered four mealworms (Tenebrio sp.) 30 min prior to experimentation.
The latter doses of SP and GR73632 were chosen for subsequent antagonist interaction studies to pharmacologically characterize the role of NK1 receptors in the mediation of induced emesis by the use of: (1) two selective neurokinin NK1 receptor antagonists (CP99,994 and L733060) (Watson et al., 115 Br. J. Phramacol. 84-94 (1995); Guiard et al., 89 J. Neurochem. 54-63 (2004)); (2) an NK2 receptor antagonist (GR159897) (Beresford et al., 272 Eur. J. Pharmacol. 241-48 (1995)); and (3) an NK3 receptor antagonist (SB218795) (Salthun-Lassalle et al., 1995).
For the above drug interaction studies, different doses (i.p.) of either CP99,994 (0, 5, 10, and 20 mg/kg, n=10-14 shrews per group); L733060 (0, 5, 10, and 20 mg/kg, n=10-14 shrews per group), GR159897 (0 mg/kg and 20 mg/kg, n=8 per group) or SB218795 (0 or 20 mg/kg, n=7-8 per group) were administered to different groups of shrews 30 min prior to injection of an emetic dose (5 mg/kg, i.p.) of the NK1-receptor agonist GR73632. Emesis and scratchings were recorded for 30 min immediately following GR73632 administration as described above. The antiemetic effect of CP99,994 (0, 5, and 10 mg/kg, n=9-10 animals per group) was also investigated in a similar manner against SP (50 mg/kg, i.p.)-induced emesis.
(§1) The data on the frequency of emesis and scratchings were analyzed by the Kruskal-Wallis (KW) nonparametric one-way analysis of variance (ANOVA) and post hoc analysis by Dunn's multiple comparisons test or Mann-Whitney test. A P value of <0.05 was necessary to attain statistical significance. The incidence of emesis (number of shrews vomiting) was analyzed by the Fisher's exact test to determine whether there were differences between groups. When appropriate, pairwise comparisons were also made by this method. Two-way analysis of variance using the Kruskal-Wallis or Fisher's exact tests were initially utilized to respectively analyze the dose-response results of GR73632 on emesis and scratching behaviors, and percentage of shrews vomiting in saporin- and corresponding saline-pretreated control shrews. […] For some emesis data, the two-tailed Mann-Whitney test was used. The SP tissue concentration data were analyzed by a one-way ANOVA followed by Dunnett's t test as post hoc analysis. Fos-IR was quantified by counting immunopositive nuclei within each hemisection containing the region of interest (ROI). The number of nuclei was averaged across sections with the ROI for each animal, and the group mean and standard error obtained.

Least Shrew [3] = test: Dose response emesis and scratching studies with tachykinin receptor agonists
Excerpt: The present protocols were based upon preliminary studies as well as published findings in the Least Shrew. Darmani, 2001a; Darmani et al., 69 Pharmacol. Biochem. Behay. 239-49 (2001b). On the test day, the shrews were allowed to acclimate to the test laboratory for at least one hour prior to experimentation. To habituate the animals to the test environment, each shrew was randomly selected and transferred to a 20 cm×18 cm×21 cm clean clear plastic cage and offered four mealworms (Tenebrio sp.) 30 min prior to experimentation. […]
as §1

O=C(O)CCC/C=C\C[C@H]1C(=O)C[C@@H](O)[C@@H]1/C=C/[C@@H](O)CCCCCO [20 Hydroxy PGE2]
emesis in the Least Shrew (Least Shrew [1]): produce emesis

CCCCC[C@@H](/C=C/[C@@H]1[C@@H](C/C=C\CCCC(=O)O)[C@@H]2C[C@H]1OO2)OO [PGG2]
emesis in the Least Shrew (Least Shrew [1]): produce emesis

COC(=O)C(NC(=O)c1cc(-c2ccccc2)nc2ccccc12)c1ccccc1 (stereo not drawn) [SB218795]
behavioral effect of antagonist by itself [2]: did not produce any behavioral effect | enhancement of frequency of GR73632-induced emesis [2]: did not attain significance | enhancement of frequency of GR73632-induced scratching [2]: did not attain significance | percentage of shrews vomiting in response to GR73632 [2]: failed to affect

[Sar^9, Met (O2)”]-Substance P [Sar Met-SP]
percentage of shrews vomiting (Least Shrew [3]; 1 mg/kg i.p.): 20% | percentage of shrews vomiting (Least Shrew [3]; 5 mg/kg i.p.): 33% | percentage of shrews vomiting (Least Shrew [3]; 10 mg/kg i.p.): 0%

CCCCC[C@H](O)/C=C/[C@@H]1[C@@H](C/C=C\CCCC(=O)O)[C@@H](O)C[C@H]1O [PGF2α]
emesis in the Least Shrew (Least Shrew [1]): produce emesis

COC1(C[S@@+]([O-])c2ccccc2)CCN(CCc2c[nH]c3ccc(F)cc23)CC1 [GR159897, 5-Flouro-3-[2-[4-methoxy-4-[[(R)-phenylsulphinyl]methyl]-1-piperidinyl]ethyl]-1H-indole]
behavioral effect of antagonist by itself [2]: did not produce any behavioral effect | enhancement of frequency of GR73632-induced emesis [2]: did not attain significance | enhancement of frequency of GR73632-induced scratching [2]: did not attain significance | percentage of shrews vomiting in response to GR73632 [2]: failed to affect

O=C(O)CCC/C=C\C[C@@H]1[C@@H](/C=C/[C@@H](O)CCCCCO)[C@H](O)C[C@@H]1O [20 Hydroxy PGE2α]
emesis in the Least Shrew (Least Shrew [1]): produce emesis

acetyl-[Arg, Sar^9, Met (O2)^11]-SP (6-11) [ASMSP]
percentage of shrews vomiting (Least Shrew [3]; 5 mg/kg i.p.): 37% | percentage of shrews vomiting (Least Shrew [3]; 10 mg/kg i.p.): 50% | percentage of shrews vomiting (Least Shrew [3]; 20 mg/kg i.p.): 50%

CCCCC[C@H](O)/C=C/[C@@H]1[C@H]2C/C(=C/CCCC(=O)O)O[C@H]2C[C@H]1O [PGI2]
emesis in the Least Shrew (Least Shrew [1]): non-emetic

[Lys^3, Gly^8-R-gamma-lactam-leu^9]Neurokinin-A (3-10) [GR64349]
produced emesis or significant scratchings (Least Shrew [3]; doses up to 10 mg/kg i.p.): neither

CCCCC[C@H](O)/C=C/[C@H]1[C@H](O)CC(=O)[C@@H]1C/C=C\CCCC(=O)O [PGE2]
emesis in the Least Shrew (Least Shrew [1]): non-emetic
